Patent publication US20150374712A1, “Combinations of Dopamine D2 Receptor Blockade With Norepinephrine Reuptake Inhibition and with Norepinephrine Alpha 2 Receptor Blockade” (priority 2007, published 2015)
Entries after “also recorded” stand apart in the source; their conditions may differ.

Columns and labels:
Syrian golden hamster [1] = conditions: vs vehicle, Example 1 (prior art, FIG. 1, Green et al. 2004); cited from earlier work
alcohol preferring P rat = experiment: Initiation of alcohol drinking in alcohol-preferring P rats; assay type: in vivo
Protocol: (§1) All animals were given 24 hours/day access to 10-15% alcohol and water in two separate drinking bottles. Groups of animals (n=6-10/group) received daily injections of the specific drug or drug combination or vehicle for up to 4 weeks.

Syrian golden hamster [2] = experiment: Chronic alcohol drinking in Syrian golden hamsters (free choice of alcohol and water); assay type: in vivo, Mesocricetus auratus
Protocol: as §1

In the case of `O=C(CCCN1CCC(O)(c2ccc(Cl)cc2)CC1)c1ccc(F)cc1` [haloperidol], the chronic alcohol drinking (Syrian golden hamster [1]) is given as “No dose of haloperidol tested had an effect on alcohol drinking; also recorded: very little effect on chronic alcohol drinking” and the “initiation of alcohol drinking” value (alcohol preferring P rat; low-dose haloperidol, Example 7, FIG. 7) is given as “minimal ability to blunt the initiation of alcohol drinking”.

For `CN1CCN(C2=Nc3cc(Cl)ccc3Nc3ccccc32)CC1` [clozapine], the “duration of clozapine's effect on alcohol drinking” value (Syrian golden hamster [2]; Syrian golden hamster, chronic clozapine, Example 2, FIG. 2, unpublished data) was “at least 1 month”.

In the case of `Cc1nc2n(c(=O)c1CCN1CCC(c3noc4cc(F)ccc34)CC1)CCCC2` [risperidone], the “alcohol drinking (chronic drinking)” value (Syrian golden hamster [2]; hamster, low dose of risperidone, Examples 9-10, FIGS. 9, 10) is reported as “only a modest effect on alcohol drinking” and the “alcohol drinking (initiation of alcohol drinking)” value (alcohol preferring P rat; low dose of risperidone, Example 11, FIG. 11) is reported as “only a modest effect on alcohol drinking”.
